According to PMC12316308, “Interactions of substrates and phosphinyl containing inhibitors with bacterial and human zinc proteases” (PLOS One, 2025):
“And” between values parts separate entries of the source, which are not always exact repeats. Equal entries are not always repeated. “Also recorded” adds a separate entry of the source. Where two headings read alike, the source gives them in different places.

What was measured:
[1] = biological target: T1, Mag-Trypsin activated MMP-9 (MMP-9(MT)) (Homo sapiens, UniProt P14780); experiment: Enzyme inhibition kinetics, fluorogenic substrate ES001; type: biochemical
T1 construct: made in house; host or cells: Sf9 and High Five insect cells

thermolysin (TLN) = biological target: T2, thermolysin (TLN) (Bacillus thermoproteolyticus, UniProt P00800); experiment: Enzyme inhibition kinetics, fluorogenic substrate ES005; type: biochemical; settings: for vi/v0 avg (time dependent inhibition, Supplementary Figure S8): Thermolysin, inhibitor 100 µM
T2 construct: purchased Calbiochem (San Diego, CA, USA)
Outline: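 Initial rates were read at 37 °C (ex 320/em 405 nm) with 4.0 µM substrate, ES001 for MMP-14 (1.0 nM) and ES005 for PLN (0.5 nM), TLN (0.21 nM), ALN (1.4 nM), in pH 7.5 Hepes, 10 mM CaCl2, 0.005% Brij-35, 1.0% DMSO. Enzymes were preincubated 30 min at room temperature or not; IC50 fitted, Ki from IC50 using Km.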

pseudolysin (PLN, LasB) = biological target: T3, pseudolysin (PLN, LasB) (Pseudomonas aeruginosa, UniProt P14756); experiment: as above; type: biochemical; settings: for remaining activity at 100 µM: 100 µM inhibitor
T3 construct: purchased Calbiochem (San Diego, CA, USA)

aureolysin (ALN) = biological target: T4, aureolysin (ALN) (Staphylococcus aureus, UniProt P81177); experiment: as above; type: biochemical; settings: for remaining activity at 100 µM: 100 µM inhibitor
T4 construct: purchased BioCentrum Ltd (Kraków, Poland)

[2] = biological target: T5, human MT1-MMP/MMP-14 (catalytic domain) (Homo sapiens, UniProt P50281); experiment: Enzyme inhibition kinetics, fluorogenic substrate ES001; type: biochemical; settings: for remaining activity at 0.01 µM: log [H1] (M) -8; for remaining activity at 0.0001 µM: log [H1] (M) -10
T5 construct: human MT1-MMP/MMP-14 (catalytic domain); purchased Calbiochem (San Diego, CA, USA)

MMP-9 = settings: previously reported; cited from earlier work
[3] = MMP-14, log [H1] (M) -4, replicates
[4] = read-out: vi/v0 before correction of curve, MMP-14, replicates
[5] = read-out: vi/v0 corrected (v0 is the average of log -10 to log -7), MMP-14, replicates

T2 sequence (P00800 233-548): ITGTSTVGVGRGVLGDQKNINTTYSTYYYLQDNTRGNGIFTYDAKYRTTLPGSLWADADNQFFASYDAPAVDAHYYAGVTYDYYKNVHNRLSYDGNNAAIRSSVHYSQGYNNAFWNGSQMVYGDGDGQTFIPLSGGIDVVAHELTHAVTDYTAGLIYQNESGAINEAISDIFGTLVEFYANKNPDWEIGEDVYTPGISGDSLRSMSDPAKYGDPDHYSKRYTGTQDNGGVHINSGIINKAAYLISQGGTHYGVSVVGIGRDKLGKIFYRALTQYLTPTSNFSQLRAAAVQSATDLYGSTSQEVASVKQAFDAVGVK
T4 sequence (P81177 209-509): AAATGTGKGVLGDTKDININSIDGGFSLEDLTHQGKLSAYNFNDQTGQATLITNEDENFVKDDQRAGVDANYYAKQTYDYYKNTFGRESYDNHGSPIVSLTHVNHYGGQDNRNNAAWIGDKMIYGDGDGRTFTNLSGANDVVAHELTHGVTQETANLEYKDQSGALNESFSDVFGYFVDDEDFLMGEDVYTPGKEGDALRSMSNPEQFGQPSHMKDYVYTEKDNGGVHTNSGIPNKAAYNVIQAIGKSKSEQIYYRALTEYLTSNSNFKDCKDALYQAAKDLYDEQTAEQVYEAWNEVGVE
T3 sequence (P14756 198-498): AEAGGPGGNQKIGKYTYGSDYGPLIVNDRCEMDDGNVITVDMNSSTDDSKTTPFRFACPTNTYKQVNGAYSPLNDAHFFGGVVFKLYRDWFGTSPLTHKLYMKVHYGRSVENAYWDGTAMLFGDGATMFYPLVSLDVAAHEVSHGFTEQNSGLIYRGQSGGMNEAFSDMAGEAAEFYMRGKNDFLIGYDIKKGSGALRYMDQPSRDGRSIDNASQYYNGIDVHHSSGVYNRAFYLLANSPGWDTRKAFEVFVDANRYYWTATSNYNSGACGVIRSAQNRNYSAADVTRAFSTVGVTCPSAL
T1 sequence (P14780 107-707 limits assumed): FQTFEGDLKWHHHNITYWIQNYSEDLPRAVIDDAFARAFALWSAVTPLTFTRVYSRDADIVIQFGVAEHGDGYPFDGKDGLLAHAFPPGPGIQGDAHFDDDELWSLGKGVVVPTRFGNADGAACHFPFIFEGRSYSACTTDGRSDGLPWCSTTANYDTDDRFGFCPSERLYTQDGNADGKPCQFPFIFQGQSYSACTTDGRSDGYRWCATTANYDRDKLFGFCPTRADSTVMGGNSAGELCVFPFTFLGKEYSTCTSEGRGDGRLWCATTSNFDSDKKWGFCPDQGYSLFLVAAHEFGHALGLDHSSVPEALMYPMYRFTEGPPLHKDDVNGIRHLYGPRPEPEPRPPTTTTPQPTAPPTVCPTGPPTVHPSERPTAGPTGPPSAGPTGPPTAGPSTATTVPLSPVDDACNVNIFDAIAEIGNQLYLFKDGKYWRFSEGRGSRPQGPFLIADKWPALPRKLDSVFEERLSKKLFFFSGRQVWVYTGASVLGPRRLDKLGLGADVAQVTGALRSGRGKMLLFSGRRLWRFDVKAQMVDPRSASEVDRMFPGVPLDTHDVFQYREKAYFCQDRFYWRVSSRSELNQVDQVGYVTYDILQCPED

NC(=O)C(CCC(=O)O)NC(=O)C(CCC(=O)O)NC(=O)C(Cc1cc(-c2ccc(-c3cccc(Cl)c3)cc2)no1)CP(=O)(O)c1ccc(Br)cc1 (stereo not drawn) [H-1]
remaining activity at 100 µM ([1]; read-out: Vi/V0, Trypsin activated MMP-9, [H1] 100 μM, replicate vi over each of 4 controls): 40.5%
remaining activity at 100 µM ([1]; read-out: vi/v0 (single replicate), rMMP-9 (Mag-trypsin activated), 100 µM inhibitor, no preincubation): 45.7%
remaining activity at 100 µM ([1]; read-out: vi/v0 avg, rMMP-9 (Mag-trypsin activated), 100 µM inhibitor, no preincubation): 47.2%
inhibitory effect on enzymatic activity (thermolysin (TLN); TLN, 100 μM compound, in words, 100 µM): did not inhibit; also recorded: no inhibition
vi/v0 Av (bar diagram figure 7) (thermolysin (TLN); Thermolysin (TLN), inhibitor 100 μM, average over 0, 15, 30 min preincubation): 1.079
vi/v0 (relative enzyme activity with inhibitor), single determinations (thermolysin (TLN); Thermolysin (TLN), inhibitor 100 μM, preincubation 0 min): 1.072 and 1.233 and 0.6933 and 1.269
vi/v0 (relative enzyme activity with inhibitor), single determinations (thermolysin (TLN); Thermolysin (TLN), inhibitor 100 μM, preincubation 15 min): 1.072 and 0.7991 and 1.161 and 1.236
vi/v0 (relative enzyme activity with inhibitor), single determinations (thermolysin (TLN); Thermolysin (TLN), inhibitor 100 μM, preincubation 30 min): 1.057 and 0.7107 and 1.167 and 1.093
vi/v0 avg (time dependent inhibition, Supplementary Figure S8) (thermolysin (TLN); 15 min pre incubation): 1.067
vi/v0 avg (time dependent inhibition, Supplementary Figure S8) (thermolysin (TLN); 30 min pre incubation): 1.007
vi/v0 avg (time dependent inhibition, Supplementary Figure S8) (thermolysin (TLN); No preincubation): 1.0666
remaining activity at 100 µM (pseudolysin (PLN, LasB); 0.25 h, read-out: vi/v0 (single replicate), Pseudolysin, 15 min pre incubation): 97.4%
remaining activity at 100 µM (pseudolysin (PLN, LasB); 0.25 h, read-out: vi/v0 avg, Pseudolysin, 15 min pre incubation): 100%
remaining activity at 100 µM (pseudolysin (PLN, LasB); 0.5 h, read-out: vi/v0 (single replicate), Pseudolysin, 30 min pre incubation): 99%
remaining activity at 100 µM (pseudolysin (PLN, LasB); 0.5 h, read-out: vi/v0 avg, Pseudolysin, 30 min pre incubation): 96.9%
inhibitory effect on enzymatic activity (pseudolysin (PLN, LasB); PLN, 100 μM compound, in words, 100 µM): did not inhibit; also recorded: no inhibition
vi/v0 Av (bar diagram figure 7) (pseudolysin (PLN, LasB); Pseudolysin (PLN), inhibitor 100 μM, average over 0, 15, 30 min preincubation): 0.993
vi/v0 (relative enzyme activity with inhibitor), single determinations (pseudolysin (PLN, LasB); Pseudolysin (PLN), inhibitor 100 μM, preincubation 0 min): 0.9731 and 1.039 and 1.005 and 1.023
vi/v0 (relative enzyme activity with inhibitor), single determinations (pseudolysin (PLN, LasB); Pseudolysin (PLN), inhibitor 100 μM, preincubation 15 min): 0.9736 and 1.014 and 0.9905 and 1.0217
vi/v0 (relative enzyme activity with inhibitor), single determinations (pseudolysin (PLN, LasB); Pseudolysin (PLN), inhibitor 100 μM, preincubation 30 min): 0.9904 and 0.9857 and 0.9514 and 0.949
remaining activity at 100 µM (pseudolysin (PLN, LasB); read-out: vi/v0 (single replicate), Pseudolysin, no preincubation): 97.3%
remaining activity at 100 µM (pseudolysin (PLN, LasB); read-out: vi/v0 avg, Pseudolysin, no preincubation): 101%
remaining activity at 100 µM (aureolysin (ALN); 0.25 h, read-out: vi/v0 (single replicate), Aureolysin, 15 min pre incubation): 81.9%
remaining activity at 100 µM (aureolysin (ALN); 0.25 h, read-out: vi/v0 avg, Aureolysin, 15 min pre incubation): 88.7%
remaining activity at 100 µM (aureolysin (ALN); 0.5 h, read-out: vi/v0 (single replicate), Aureolysin, 30 min pre incubation): 89.6%
remaining activity at 100 µM (aureolysin (ALN); 0.5 h, read-out: vi/v0 avg, Aureolysin, 30 min pre incubation): 89.8%
inhibitory effect on enzymatic activity (aureolysin (ALN); ALN, 100 μM compound, in words, 100 µM): did not inhibit; also recorded: no inhibition
vi/v0 Av (bar diagram figure 7) (aureolysin (ALN); Aureolysin (ALN), inhibitor 100 μM, average over 0, 15, 30 min preincubation): 0.886
vi/v0 (relative enzyme activity with inhibitor), single determinations (aureolysin (ALN); Aureolysin (ALN), inhibitor 100 μM, preincubation 0 min): 0.8363 and 0.9057 and 0.9048 and 0.862
vi/v0 (relative enzyme activity with inhibitor), single determinations (aureolysin (ALN); Aureolysin (ALN), inhibitor 100 μM, preincubation 15 min): 0.8192 and 0.9295 and 0.9112
vi/v0 (relative enzyme activity with inhibitor), single determinations (aureolysin (ALN); Aureolysin (ALN), inhibitor 100 μM, preincubation 30 min): 0.8961 and 0.9218 and 0.8734
remaining activity at 100 µM (aureolysin (ALN); read-out: vi/v0 (single replicate), Aureolysin, no preincubation): 83.6%
remaining activity at 100 µM (aureolysin (ALN); read-out: vi/v0 avg, Aureolysin, no preincubation): 87.7%
Ki [2]: 890 ± 40 nM
remaining activity at 100 µM ([2]; 0.25 h, read-out: vi/v0 (single replicate), MMP-14, 100 µM inhibitor, 15 min pre incubation): 3.03%
remaining activity at 100 µM ([2]; 0.25 h, read-out: vi/v0 avg, MMP-14, 100 µM inhibitor, 15 min pre incubation): 2.86%
remaining activity at 100 µM ([2]; 0.5 h, read-out: vi/v0 (single replicate), MMP-14, 100 µM inhibitor, 30 min pre incubation): 4.56%
remaining activity at 100 µM ([2]; 0.5 h, read-out: vi/v0 avg, MMP-14, 100 µM inhibitor, 30 min pre incubation): 3.15%
inhibitory effect on enzymatic activity ([2]; MMP-14, 100 μM compound, in words): strong inhibition
vi/v0 Av (bar diagram figure 7) ([2]; MMP-14, inhibitor 100 μM, average over preincubation times): 0.03265
vi/v0 (relative enzyme activity with inhibitor), single determinations ([2]; MMP-14, inhibitor 100 μM, preincubation 0 min): 0.02699 and 0.03692 and 0.04011 and 0.0422
vi/v0 (relative enzyme activity with inhibitor), single determinations ([2]; MMP-14, inhibitor 100 μM, preincubation 15 min): 0.03033 and 0.02659 and 0.02876
vi/v0 (relative enzyme activity with inhibitor), single determinations ([2]; MMP-14, inhibitor 100 μM, preincubation 30 min): 0.04555 and 0.0252 and 0.02389
vi/v0 before correction of curve [2, 3]: 0
vi/v0 corrected (v0 is the average of log -10 to log -7) [2, 3]: 0
remaining activity at 100 µM ([2]; read-out: vi/v0 (single replicate), MMP-14, 100 µM inhibitor, no preincubation): 2.7%
remaining activity at 100 µM ([2]; read-out: vi/v0 avg, MMP-14, 100 µM inhibitor, no preincubation): 3.66%
remaining activity at 100 µM ([2]; read-out: vi/v0 before correction of curve, MMP-14, log [H1] (M) -4, replicates): 0%
remaining activity at 0.01 µM [2, 4]: 90.7%
remaining activity at 0.0001 µM [2, 4]: 94.8%
remaining activity at 100 µM ([2]; read-out: vi/v0 corrected (v0 is the average of log -10 to log -7), MMP-14, log [H1] (M) -4, replicates): 0%
remaining activity at 0.01 µM [2, 5]: 91.4%
remaining activity at 0.0001 µM [2, 5]: 95.4%
Ki (MMP-9): 1300 nM
